Source: US11547703B2, “Substituted fused heteroaromatic tricyclic compounds as kinase inhibitors and the use thereof” (IMPACT THERAPEUTICS (SHANGHAI), INC, priority 2017, dated 2023)

Tests used:
[1] = test system: human colon cancer cell SW620; experiment: MTT assay, growth of SW620 cells, compounds combined with CPT-11; assay type: cell-based; settings: 205 nM CPT-11, 5 days, MTT
Protocol: (§1) SW620 cells were digested by trypsinase, centrifuged at 800 rpm for 5 minutes, the supernatant was discarded, resuspended with fresh medium (RPMI 1640 medium+10% FBS) and counted. The cells were seeded into 96-well cell culture plate with appropriate cell density and incubated overnight in a 37° C. 5% CO2 incubator. The stock solutions of the tested compound and the reference compound AZD0156 were serially diluted to 8 concentrations by DMSO at the ratios of 1:3 and 1:10, respectively, and the last concentration was negative control of DMSO (0 μM, the final concentration of DMSO was 1%). 5 μL of each concentration was added to 120 μL of medium (25 times diluted) and mixed by shaking. The overnight cells were taken and the culture medium was removed, 195 μL of fresh medium containing 205 nM CPT-11 was added to each well, and 5 μL of diluted medium containing the corresponding concentration of the tested sample was added respectively, and the culture plate was then placed in the 5% CO2 cell culture incubator at 37° C. for 5 days. After removing the original solution, 100 μL of fresh serum-free DMEM medium containing MTT (0.5 mg/mL) was added to each well, the culture was continued. After 4 hours, the original solution was removed, 100 μL of DMSO was added into each well, the 96-well plates were shaken away from light for 10 minutes and placed in a multi-function reader to read the absorbance at the wavelength of 552/630/690 nm. GraphPad Prism 6.0 was used to analyze the data. The inhibitory activity of compounds on cell proliferation was plotted based on cell viability and compound concentration. The IC50 value was fitted by a sigmoidal dose response curve equation Y=100/(1+10^(Log C−Log IC50)), where C was the concentration of compound.

[2] = test system: human breast cancer cell MDA-MB-468; experiment: MTT assay, growth of MDA-MB-468 cells; assay type: cell-based; settings: single agent, 7 days, MTT
Protocol: as §1, with “MDA-MB-468 cells” for “SW620 cells”, “1:10, respectively:” for “1:10, respectively, and”, “medium (PRMI 1640+5% FBS)” for “medium containing 205 nM CPT-11”, “for 7 days (On the fourth day, the medium containing drugs was removed and fresh medium containing drugs was added for continuous cultivation).” for “for 5 days.”

ATM enzyme (human) = ATM enzyme (human) (Homo sapiens, UniProt Q13315); experiment: ATM kinase assay (HTRF, phosphorylation of GST-cMyc-p53); assay type: biochemical; settings: for inhibition(%) of ATM kinase / inhibition at 1 µM: detected concentration 1 μm
Protocol: ATM enzyme (human) was added to the reaction solution containing 30 nM GST-cMyc-p53 and 10 μM Mg/ATP, and then 50 times the concentration of the tested compound (or reference compound AZD0156) dissolved in 100% DMSO was added to the final concentration of 10 μM/1 μM/0.1 μM/0.01 μM. The reaction was initiated by the addition of a Mg/ATP mixture and incubation for 30 minutes at room temperature, the reaction was quenched by the addition of a stop solution containing EDTA. Finally, the detection buffer containing the d2-labeled anti-GST monoclonal antibody and the europium-labeled anti-phospho p53 (Ser15) antibody was added. The plate was then read in time resolved fluorescence mode and the homogeneous time resolved fluorescence (HTRF) signal was determined according to the equation: HTRF=10000×(Em665nm/Em620nm). Each compound sample was repeated in duplicate. The negative control contained all components except the ATM enzyme, and the positive control contained all components. All reactions were quenched by adding EDTA.
The compounds were serially diluted to 10 concentrations with 100% DMSO at the ratio of 1:3 and 1:10 (the last concentration was negative control of DMSO), then added to the ATM buffer and diluted to a final concentration of 10, 3, 1, 0.3, 0.1, 0.03, 0.01, 0.003, 0.001 and 0 μM, respectively. ATM kinase inhibition was detected by using the method described above. The curve equation for calculating IC50 value is as follows: […]
wherein, C is the concentration of compound and D is the slope factor. Table 2 summarizes the IC50 values of compounds inhibiting ATM kinase.

[3] = Homo sapiens, MDA-MB-468, 168 h

Sequence of ATM enzyme (human) (Q13315 whole entry): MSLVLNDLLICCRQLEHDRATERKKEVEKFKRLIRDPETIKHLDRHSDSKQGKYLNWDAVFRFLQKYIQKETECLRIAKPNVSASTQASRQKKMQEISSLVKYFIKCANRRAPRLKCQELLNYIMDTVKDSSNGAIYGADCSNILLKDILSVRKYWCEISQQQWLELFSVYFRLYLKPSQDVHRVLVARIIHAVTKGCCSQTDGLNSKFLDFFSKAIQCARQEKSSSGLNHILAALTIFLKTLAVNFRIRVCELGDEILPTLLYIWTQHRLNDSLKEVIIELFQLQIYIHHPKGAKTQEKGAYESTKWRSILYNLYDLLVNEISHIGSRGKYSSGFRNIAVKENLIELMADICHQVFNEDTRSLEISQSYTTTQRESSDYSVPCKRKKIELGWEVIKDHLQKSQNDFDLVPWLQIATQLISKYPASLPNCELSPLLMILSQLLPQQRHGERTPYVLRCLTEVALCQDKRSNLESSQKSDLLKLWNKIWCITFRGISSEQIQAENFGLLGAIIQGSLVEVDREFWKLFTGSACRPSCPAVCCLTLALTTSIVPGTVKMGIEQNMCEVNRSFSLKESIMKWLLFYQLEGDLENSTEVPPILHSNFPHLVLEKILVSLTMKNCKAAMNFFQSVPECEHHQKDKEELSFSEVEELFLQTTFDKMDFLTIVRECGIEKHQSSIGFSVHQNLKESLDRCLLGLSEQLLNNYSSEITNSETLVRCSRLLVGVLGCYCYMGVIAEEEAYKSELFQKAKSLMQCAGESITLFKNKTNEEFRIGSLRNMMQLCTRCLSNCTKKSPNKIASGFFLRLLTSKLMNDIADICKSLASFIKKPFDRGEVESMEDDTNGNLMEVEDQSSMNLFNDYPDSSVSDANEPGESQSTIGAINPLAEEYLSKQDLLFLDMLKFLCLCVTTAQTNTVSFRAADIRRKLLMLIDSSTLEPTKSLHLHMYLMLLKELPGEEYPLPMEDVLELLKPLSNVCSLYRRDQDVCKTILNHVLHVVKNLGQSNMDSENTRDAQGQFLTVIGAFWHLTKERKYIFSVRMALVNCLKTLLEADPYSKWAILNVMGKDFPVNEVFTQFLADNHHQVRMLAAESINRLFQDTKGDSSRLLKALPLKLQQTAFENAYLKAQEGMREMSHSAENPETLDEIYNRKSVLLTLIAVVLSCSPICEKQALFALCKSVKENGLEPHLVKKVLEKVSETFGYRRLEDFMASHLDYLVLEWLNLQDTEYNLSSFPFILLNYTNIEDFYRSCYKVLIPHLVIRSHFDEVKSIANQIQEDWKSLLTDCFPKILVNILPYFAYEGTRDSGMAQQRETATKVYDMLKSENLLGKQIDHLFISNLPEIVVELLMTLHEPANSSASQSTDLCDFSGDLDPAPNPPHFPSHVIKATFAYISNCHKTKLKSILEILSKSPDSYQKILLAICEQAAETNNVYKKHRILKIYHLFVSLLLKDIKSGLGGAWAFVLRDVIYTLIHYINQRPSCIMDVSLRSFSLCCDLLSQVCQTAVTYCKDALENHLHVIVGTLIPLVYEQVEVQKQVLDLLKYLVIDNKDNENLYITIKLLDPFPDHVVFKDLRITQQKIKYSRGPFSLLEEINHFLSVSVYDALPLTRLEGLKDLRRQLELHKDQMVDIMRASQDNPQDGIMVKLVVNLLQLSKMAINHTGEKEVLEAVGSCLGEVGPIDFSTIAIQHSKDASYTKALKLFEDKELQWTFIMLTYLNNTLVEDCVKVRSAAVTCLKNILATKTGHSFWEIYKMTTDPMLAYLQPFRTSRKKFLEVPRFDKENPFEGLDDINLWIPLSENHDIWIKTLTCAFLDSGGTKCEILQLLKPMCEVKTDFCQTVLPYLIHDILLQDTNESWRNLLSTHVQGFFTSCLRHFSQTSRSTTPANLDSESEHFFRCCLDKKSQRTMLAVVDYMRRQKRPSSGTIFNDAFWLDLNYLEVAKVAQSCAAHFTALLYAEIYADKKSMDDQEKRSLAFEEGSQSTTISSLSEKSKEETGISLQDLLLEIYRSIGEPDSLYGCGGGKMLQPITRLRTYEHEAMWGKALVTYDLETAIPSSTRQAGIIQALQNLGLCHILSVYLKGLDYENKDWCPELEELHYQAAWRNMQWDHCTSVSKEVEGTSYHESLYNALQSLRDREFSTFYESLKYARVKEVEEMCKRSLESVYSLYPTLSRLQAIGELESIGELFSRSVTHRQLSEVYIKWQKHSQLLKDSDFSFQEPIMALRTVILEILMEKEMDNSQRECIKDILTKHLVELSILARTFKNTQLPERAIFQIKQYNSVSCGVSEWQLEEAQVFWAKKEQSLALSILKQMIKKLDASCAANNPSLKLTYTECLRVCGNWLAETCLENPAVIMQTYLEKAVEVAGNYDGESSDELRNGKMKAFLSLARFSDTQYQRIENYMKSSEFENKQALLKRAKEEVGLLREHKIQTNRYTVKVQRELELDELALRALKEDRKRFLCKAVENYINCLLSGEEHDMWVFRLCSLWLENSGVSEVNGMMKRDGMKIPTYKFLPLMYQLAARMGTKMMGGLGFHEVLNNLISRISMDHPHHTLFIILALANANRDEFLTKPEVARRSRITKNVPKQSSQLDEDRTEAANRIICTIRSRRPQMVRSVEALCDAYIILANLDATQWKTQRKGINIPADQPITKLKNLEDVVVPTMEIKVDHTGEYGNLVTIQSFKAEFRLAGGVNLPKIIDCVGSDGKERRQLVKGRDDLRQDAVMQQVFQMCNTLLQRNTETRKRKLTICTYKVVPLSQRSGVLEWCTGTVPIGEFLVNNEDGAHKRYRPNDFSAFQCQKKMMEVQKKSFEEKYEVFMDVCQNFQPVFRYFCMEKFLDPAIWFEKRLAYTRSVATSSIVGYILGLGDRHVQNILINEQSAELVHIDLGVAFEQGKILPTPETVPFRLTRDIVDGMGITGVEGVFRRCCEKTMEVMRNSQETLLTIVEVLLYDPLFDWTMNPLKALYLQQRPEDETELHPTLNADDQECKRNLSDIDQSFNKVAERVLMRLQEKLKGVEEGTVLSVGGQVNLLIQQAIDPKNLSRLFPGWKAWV

Row | IC50 ([1]; Homo sapiens, SW-620, 120 h) [nM] | inhibition at 1 µM (ATM enzyme (human); 0.5 h) [%] | Compound | further results
1 | 1340 | – | CN(C)CCCOc1ccc(-c2ccc3nc4cccc(C5=CCOCC5)c4n3c2)cn1 [Example 1, N,N-dimethyl-3-((5-(9-(3,6-dihydro-2H-pyran-4-yl)benzo[4,5]imidazo[1,2-a]pyridin-2-yl)pyridin-2-yl)oxy)propan-1-amine] | IC50 [2, 3]: 2800 nM; IC50 (ATM enzyme (human); 10 concentrations, 10 to 0.001 μM, read-out: IC50 (nM), in vitro inhibitory effect on ATM kinase): 239 nM; inhibition at 10 µM (ATM enzyme (human); 0.5 h, detected concentration 10 μm): 100%; effect on ATM kinase (in words) (ATM enzyme (human); ATM kinase (human) assay): good effect
2 | 434 | 99 | C[C@@H]1CN(c2cccc3nc4ccc(-c5ccc(OCCCN(C)C)nc5)cn4c23)C[C@H](C)N1C [Example 8, N,N-dimethyl-3-((5-(9-((3S,5R)-3,4,5-trimethylpiperazin-1-yl)benzo[4,5]imidazo[1,2-a]pyridin-2-yl)pyridin-2-yl)oxy)propan-1-amine] | IC50 [2, 3]: 25.1 nM
3 | 1570 | 86 | CN(C)CCCOc1ccc(-c2ccc3nc4cccc(OC5CCOCC5)c4n3c2)cn1 [Example 13, N,N-dimethyl-3-((5-(9-((tetrahydro-2H-pyran-4-yl)oxy)benzo[4,5]imidazo[1,2-a]pyridin-2-yl)pyridin-2-yl)oxy)propan-1-amine] | –
4 | 1510 | 91 | CN(C)C1CCN(c2ccc(-c3ccc4nc5cccc(C6=CCOCC6)c5n4c3)cc2)CC1 [Example 39, N,N-dimethyl-1-(4-(9-(3,6-dihydro-2H-pyran-4-yl)benzo[4,5]imidazo[1,2-a]pyridin-2-yl)phenyl)piperidin-4-amine] | inhibition at 0.01 µM (ATM enzyme (human); 0.5 h, detected concentration 0.01 μm): 17%; inhibition at 0.1 µM (ATM enzyme (human); 0.5 h, detected concentration 0.1 μm): 62%
5 | > 1000 | – | C[C@@H]1CN(c2cccc3nc4ccc(-c5ccc(OCCCN(C)C)c(F)c5)cn4c23)C[C@H](C)N1C [Example 50, N,N-dimethyl-3-(2-fluoro-4-(9-((3S,5R)-3,4,5-trimethylpiperazin-1-yl)benzo[4,5]imidazo[1,2-a]pyridin-2-yl)phenoxy)propan-1-amine] | IC50 [2, 3]: > 1000 nM
6 | 162 | 100 | C[C@@H]1CN(c2cccc3nc4ccc(-c5ccc(OCCCN(C)C)c(C(F)(F)F)c5)cn4c23)C[C@H](C)N1C [Example 53, N,N-dimethyl-3-(2-(trifluoromethyl)-4-(9-((3S,5R)-3,4,5-trimethylpiperazin-1-yl)benzo[4,5]imidazo[1,2-a]pyridin-2-yl)phenoxy)propan-1-amine] | –

Continued, compound first:

Row | Compound | IC50 ([1]; Homo sapiens, SW-620, 120 h) [nM] | inhibition at 1 µM (ATM enzyme (human); 0.5 h) [%] | further results
7 | CN(C)CCCOc1ccc(-c2ccc3ncc4c(c3c2)n(C2CCOCC2)c(=O)n4C)cn1 [AZD0156, reference compound] | – | – | IC50 [1]: 8.5 nM; IC50 [2]: 10.6 nM; inhibition(%) of ATM kinase (ATM enzyme (human)): 100%
8 | CN(C)CCCOc1ccc(-c2ccc3nc4cccc(C5=CCOCC5)c4n3c2)cc1 [Example 2, N,N-dimethyl-3-(4-(9-(3,6-dihydro-2H-pyran-4-yl)benzo[4,5]imidazo[1,2-a]pyridin-2-yl)phenoxy)propan-1-amine] | 1660 | 81 | –
9 | CN(C)CCCOc1ccc(-c2ccc3nc4cccc(N5CCN(C)CC5)c4n3c2)cc1 [Example 3, N,N-dimethyl-3-(4-(9-(4-methylpiperazin-1-yl)benzo[4,5]imidazo[1,2-a]pyridin-2-yl)phenoxy)propan-1-amine] | 563 | – | IC50 [2, 3]: 330 nM
10 | CN(C)CCCOc1ccc(-c2ccc3nc4cccc(N5CCOCC5)c4n3c2)cc1 [Example 4, N,N-dimethyl-3-(4-(9-morpholinobenzo[4,5]imidazo[1,2-a]pyridin-2-yl)phenoxy)propan-1-amine] | 5480 | 74 | –
11 | CN(C)CCCOc1ccc(-c2ccc3nc4cccc(N5CCCCC5)c4n3c2)cn1 [Example 5, N,N-dimethyl-3-((5-(9-(piperidin-1-yl)benzo[4,5]imidazo[1,2-a]pyridin-2-yl)pyridin-2-yl)oxy)propan-1-amine] | > 10000 | 61 | –
12 | CN(C)CCCOc1ccc(-c2ccc3nc4cccc(N5CCOCC5)c4n3c2)cn1 [Example 6, N,N-dimethyl-3-((5-(9-morpholinobenzo[4,5]imidazo[1,2-a]pyridin-2-yl)pyridin-2-yl)oxy)propan-1-amine] | 2470 | 77 | –
13 | CN(C)CCCOc1ccc(-c2ccc3nc4cccc(N5CCN(C)CC5)c4n3c2)cn1 [Example 7, N,N-dimethyl-3-((5-(9-(4-methylpiperazin-1-yl)benzo[4,5]imidazo[1,2-a]pyridin-2-yl)pyridin-2-yl)oxy)propan-1-amine] | > 10000 | 64 | –
14 | CN(C)CCCOc1ccc(-c2ccc3nc4cccc(CN5CCN(C)CC5)c4n3c2)cn1 [Example 11] | – | – | IC50 [1]: 1040 nM; inhibition(%) of ATM kinase (ATM enzyme (human)): 63%
15 | CN(C)CCCOc1ccc(-c2ccc3nc4cccc(NC5CCOCC5)c4n3c2)cn1 [Example 14, N,N-dimethyl-3-((5-(9-(tetrahydro-2H-pyran-4-ylamino)benzo[4,5]imidazo[1,2-a]pyridin-2-yl)pyridin-2-yl)oxy)propan-1-amine] | > 10000 | 48 | –
16 | CN(C)C1CCN(c2ccc(-c3ccc4nc5cccc(C6=CCOCC6)c5n4c3)cn2)CC1 [Example 40, N,N-dimethyl-1-(5-(9-(3,6-dihydro-2H-pyran-4-yl)benzo[4,5]imidazo[1,2-a]pyridin-2-yl)pyridin-2-yl)piperidin-4-amine] | 2370 | 96 | –
17 | CN(C)C1CCN(c2ccc(-c3ccc4nc5cccc(N6CCOCC6)c5n4c3)cc2)CC1 [Example 41, N,N-dimethyl-1-(4-(9-morpholinobenzo[4,5]imidazo[1,2-a]pyridin-2-yl)phenyl)piperidin-4-amine] | 3480 | 82 | –
18 | C[C@@H]1CN(c2ncnc3nc4ccc(-c5ccc(N6CCC(N(C)C)CC6)cc5)nn4c23)C[C@H](C)N1C [Example 71, N,N-dimethyl-1-(4-(4-((3 S,5R)-3,4,5-trimethylpiperazin-1-yl)pyridazino[6,1-f]purin-7-yl)phenyl)piperidin-4-amine] | 1240 | – | IC50 [2, 3]: 1800 nM
19 | N,N-dimethyl-1-(2-(trifluoromethyl)-4-(942S,6R)-2,6-dimethylmorpholino)benzo[4,5]imidazo[1,2-a]pyridin-2-yl)phenyl)piperidin-4-amine [Example 54] | – | – | IC50 [1]: 193 nM; IC50 [2]: 220 nM
20 | N,N-dimethyl-3-(2-(trifluoromethyl)-4-(942S,6R)-2,6-dimethylmorpholino)benzo[4,5]imidazo[1,2-a]pyridin-2-yl)phenoxy)propan-1-amine [Example 55] | – | – | IC50 [1]: 228 nM; IC50 [2]: 255 nM
